For one data set, the system named is HIV-1BaL. In kind it is cell-based. Particulars: HIV-1BaL, TZM-bl cells; peptide 10-0.00061 μM for 1 h at 37 °C before virus; luciferase after 48 h; sigmoid fit; mean of triplicates. Here is the method: HIV-1BaL[52] was provided by the NIH AIDS Research & Reference Reagent Program (http://www.aidsreagent.org/). Viral stock was prepared by passage through activated PBMCs[53] for 11 days.
Luciferase-reporter HeLa cells stably transfected to express CD4 and CCR5; TZM-bl cells[54]−[56] were grown in Dulbecco’s Minimal Essential Medium (DMEM) (Sigma-Aldrich, Inc., St. Louis, MO) containing 10% fetal calf serum (FCS), 2 mM L-glutamine, and antibiotics (100 U of penicillin/mL, 100 μg of streptomycin/mL) at 37 °C in an atmosphere containing 5% CO2.
All inhibition assays in cellular and tissue explants models were performed using a standardized amount of virus culture supernatant normalized for infectivity. TZM-bl cells were incubated with serial dilutions of peptides (from 10 μM to 0.00061 μM) for 1 h at 37 °C, prior to challenge with HIV-1BaL. Luciferase expression (r.l.u. values) was determined after 48 h. Alternatively, tissue explants were incubated with serial dilutions of peptide (from 100 μM to 0.1 μM) for 1 h before virus (10^4 TCID50/mL) was added for 2 h. Explants were then washed four times with PBS to remove unbound virus and drug. Colorectal explants were then transferred onto gelfoam rafts (Welbeck Pharmaceuticals, UK) and cultured for 15 days as described previously[57] […]. Explants were cultured for up to 15 days in the absence of peptide. Approximately 50% of the supernatants were harvested every 2–3 days and explants were re-fed with fresh media. The extent of viral replication in tissue explants was determined by measuring the p24 antigen concentration in supernatants (INNOTEST HIV antigen mAb; Fujirebio Europe, Belgium). The extent of inhibition by each peptide was calculated. The percentage of inhibition was normalized relative to the r.l.u, for TZM-bl cells, or p24, for tissue explants, values obtained for cells or explants cultured in the absence of virus (100% inhibition) and for cells or explants infected with virus in the absence of peptide (0% inhibition). Data are the mean (±SEM) of triplicates. When a dose–response curve was obtained, IC50 and, if possible, IC95 values were calculated from sigmoid curve fits (GraphPad Prism). For all curves, R^2 is >0.7.

Data set [1] is described as follows: Visual stability and aspect of POPC vesicles mixed with PAs (SAXS samples). In kind it is physicochemical. The settings on record: POPC 20 mM + 2 mM PA, 0.5% DMSO. On the procedure: In Figure 5A,B, we show the spectra corresponding to POPC 20 mM and POPC 20 mM + 2 mM PAs (all of them in the presence of 0.5% DMSO). The band centered at 1.2 nm^–1 and the secondary band at 3.2 nm^–1 were typical of unilamellar vesicles.[35]
The incorporation of PAs had some distinct consequences. The first and more obvious one is the distinction between stable and unstable systems.

A further data set is described as follows: MTT cytotoxicity assay. In kind it is cell-based. Particulars: human, HeLa-env cells, PAs coassembled with 5% FAM, 40-2.3 μM, absorbance 560 nm. Here is the method: The metabolic activity of the cell line, related to the cytotoxic effect of the compounds to be tested, is measured after 24 h using the MTT assay. This assay is based on the metabolic reduction of 3-(4,5-dimethylthiazol-2-yl)-2,5-diphenyl-2H-tetrazolium bromide (MTT), carried out by the mitochondrial enzyme succinate dehydrogenase, in a colored compound of blue color (formazan) that can be monitored by absorbance spectroscopy at 560 nm, allowing determination of the mitochondrial functionality of the treated cells.
The HeLa-env cell line is seeded in 96-well plates with an initial density of 15,000 cells per well in 100 μL of culture medium (Dulbecco’s modified Eagle’s medium, DMEM, with 10% FBS added) and incubated for 24 h at 37 °C and 5% CO2 to allow their adhesion. The cell monolayers are washed with PBS, and then 100 μL of PAs formulations (peptide amphiphiles coassembled with 5% FAM) are added in a concentration range from 40 μM to 2.3 μM. The plates are kept in incubation for further 24 h.
At the end of the incubation time, the cells are incubated for 3 h with 1 mg/mL of MTT, dissolved in culture medium without FBS, to allow the formation of formazan crystals. Subsequently, 100 μL of DMSO are added to wells, stirring the plates for 30 min at room temperature to facilitate the complete dissolution of the crystals. Finally, the absorbance at 560 nm is measured in a microplate reader.
The results are expressed as relative percentage between absorbance of PA formulations against absorbance of its DMSO controls and CC50 and CC25 values are taken from dose–response curves.
On the technique in general: Tetrazolium assays rely on reduction of a dye to a coloured formazan, in cell work by metabolically active cells.

Assay in data set [2]: not given
This is another data set of the same source.

As usually defined, the IC50 is the concentration needed to halve the response being measured. A low value points to greater potency in that assay. Usually CC50 stands for the concentration at which the toxic effect on the cells reaches its halfway point. Lower therefore signals greater toxicity to the cells.

*1 amine or outer side, *2 acyl side, *3 side chain or, on linkers, in order; H or OH if unused. Where a SMILES comes first, the peptide text is derived from it. Side-chain parts run from the residue outwards. The star is where a group is joined. X1 = CC(C)CCC[C@@H](C)[C@H]1CC[C@H]2[C@@H]3CC=C4C[C@@H](OC(=O)CSC[C@H](N)C(=O)*)CC[C@]4(C)[C@H]3CC[C@]12C; PEG28 = NCCOCCOCCOCCOCCOCCOCCOCCOCCOCCOCCOCCOCCOCCOCCOCCOCCOCCOCCOCCOCCOCCOCCOCCOCCOCCOCCOCCOCCC(=O)O; N(octadecyl)2 = CCCCCCCCCCCCCCCCCCN(CCCCCCCCCCCCCCCCCC)*; Suc = O=C(CCC(=O)[*:2])[*:1]

The molecule `CC[C@H](C)[C@H](NC(=O)[C@@H](NC(=O)CNC(=O)[C@H](CCCNC(=N)N)NC(=O)[C@H](Cc1c[nH]c2ccccc12)NC(=O)[C@H](Cc1ccccc1)NC(=O)[C@H](CC(=O)O)NC(=O)[C@H](Cc1ccccc1)NC(=O)[C@@H]1CCCN1C(=O)[C@@H](NC(=O)[C@H](CCCCNC(=O)CCOCCOCCOCCOCCOCCOCCOCCOCCOCCOCCOCCOCCOCCOCCOCCOCCOCCOCCOCCOCCOCCOCCOCCOCCOCCOCCOCCOCCNC(=O)[C@@H](N)CSCC(=O)O[C@H]1CC[C@@]2(C)C(=CC[C@H]3[C@@H]4CC[C@H]([C@H](C)CCCC(C)C)[C@@]4(C)CC[C@@H]32)C1)NC(=O)[C@H](Cc1c[nH]c2ccccc12)NC(=O)[C@H](CC(C)C)NC(=O)[C@H](Cc1ccc(O)cc1)NC(=O)[C@H](CCC(=O)O)NC(=O)[C@H](CC(C)C)NC(=O)[C@@H](NC(=O)[C@@H](N)Cc1c[nH]c2ccccc12)[C@@H](C)CC)C(C)C)C(C)C)C(N)=O` [K-PAchol] (H-WILEYLWK([PEG28-X1])VPFDFWRGVI-NH2) registered a lamellar liquid crystal periodicity of 4.8 nm. This molecule registered an IC50 in the data set with HIV-1BaL of 90 nM. Moreover, in data set [1], the “stability / aspect of the sample” value was “bluish”. The CC50 at 24 h in the data set “MTT cytotoxicity assay” was more than 40000 nM.

On to `CCCCCCCCCCCCCCCCCCN(CCCCCCCCCCCCCCCCCC)C(=O)CCC(=O)NCCOCCOCCOCCOCCOCCOCCOCCOCCOCCOCCOCCOCCOCCOCCOCCOCCOCCOCCOCCOCCOCCOCCOCCOCCOCCOCCOCCOCCC(=O)NCCCC[C@H](NC(=O)[C@H](Cc1c[nH]c2ccccc12)NC(=O)[C@H](CC(C)C)NC(=O)[C@H](Cc1ccc(O)cc1)NC(=O)[C@H](CCC(=O)O)NC(=O)[C@H](CC(C)C)NC(=O)[C@@H](NC(=O)[C@@H](N)Cc1c[nH]c2ccccc12)[C@@H](C)CC)C(=O)N[C@H](C(=O)N1CCC[C@H]1C(=O)N[C@@H](Cc1ccccc1)C(=O)N[C@@H](CC(=O)O)C(=O)N[C@@H](Cc1ccccc1)C(=O)N[C@@H](Cc1c[nH]c2ccccc12)C(=O)N[C@@H](CCCNC(=N)N)C(=O)NCC(=O)N[C@H](C(=O)N[C@H](C(N)=O)[C@@H](C)CC)C(C)C)C(C)C` [K-PAdialkyl] (H-WILEYLWK([PEG28-Suc-N(octadecyl)2])VPFDFWRGVI-NH2), for which, in data set [2], the vesicular bilayer thickness stood at 9 nm. In addition, the midpoint of inhibition with HIV-1BaL, the IC50, lay at 50 nM. Besides, the “stability / aspect of the sample” value in data set [1] is “milky”. This molecule also gave a CC50 at 24 h in the data set “MTT cytotoxicity assay” of more than 40000 nM.

Source of the values: article PMC8447191, “Peptide Amphiphilic-Based Supramolecular Structures with Anti-HIV-1 Activity” (Bioconjugate Chemistry, 2021).
